Earlier results in patent US20140221306A1 (Santen Pharmaceutical Co. Ltd, priority 2010, published 2014).

Tests used:
[1] = disclosed in Japanese Patent No. 3652707 (PTD 1)
[2] = test system: dry eye patients; conditions: instillation of an ophthalmic solution; Cornea, 23(8), 784-792 (2004)

Compound	effect on secretion of tears [1]	corneal epithelium disorder of dry eye patients [2]
O=c1ccn([C@@H]2O[C@H](COP(=O)(O)OP(=O)(O)OP(=O)(O)OP(=O)(O)OC[C@H]3O[C@@H](n4ccc(=O)[nH]c4=O)C(O)C3O)C(O)C2O)c(=O)[nH]1 (some centres unmarked) [Diquafosol, P^1,P^4-di(uridine-5′)tetraphosphate]	effect of stimulating secretion of tears	–
O=c1ccn([C@@H]2O[C@H](COP(=O)([O-])OP(=O)([O-])OP(=O)([O-])OP(=O)([O-])OC[C@H]3O[C@@H](n4ccc(=O)[nH]c4=O)[C@H](O)[C@@H]3O)[C@@H](O)[C@H]2O)c(=O)[nH]1.[Na+].[Na+].[Na+].[Na+] [diquafosol tetrasodium salt]	–	improved corneal epithelium disorder
